# Assay results: patent US20100297692A1, “REACTION MEDIUM FOR DETECTING AND/OR IDENTTIFYING STAPHYLOCCOUS AUREUS” (BIOMERIEUX, priority 2007, published 2010)
# Legend:
# Assay in all cases: β-D-ribosidase substrates in Columbia agar, colored or fluorescent colonies
# S. aureus (MRSA) = format: cell-based, Staphylococcus aureus
# Method: (§1) The media hereinafter were prepared in 200 ml of a Columbia agar base (Oxoid), in combination with the chromogenic β-D-ribosidase substrates. The various substrates and also the concentrations and the additives used in the media are described in Table 1 below:
# (§2) The β-D-ribosidase substrates are solubilized in DMSO and added to the media so as to obtain the concentrations indicated in Table 1.
# (§3) 191 bacterial strains were inoculated onto each of the media using a suspension at 0.5 MacFarland diluted to 1/1000. The dishes were incubated at 37° C. and then read.
# (§4) The media were distributed into Petri dishes, then inoculated with approximately 100 000 CFU, then incubated at 37° C. for 48 h. The colonies formed were examined visually after incubation times of 18, 24 and 48 hours.
# (§5) The stock collection of 191 strains comprised: […], 48 Staphylococcus spp, 61 Enterococcus spp and 3 alpha-hemolytic Streptococcus.
# S. aureus (MSSA) = format: cell-based, Staphylococcus aureus
# Method: as §1, §2, §3, §4, §5
# [1] = system: Coagulase-negative Staphylococci; format: cell-based, Staphylococcus spp; conditions: Coagulase-negative Staphylococci
# Method: as §1, §2, §3, §4, §5
# Micrococcus luteus = format: cell-based
# Method: [The procedure below names another organism; the source lists this organism under the same test.] as §1, §2, §3, §4, §5
# Enterococci = format: cell-based, Enterococcus spp
# Method: as §1, §2, §3, §4, §5
# [2] = system: Alpha-hemolytic streptococci; format: cell-based, alpha-hemolytic Streptococcus
# Method: as §1, §2, §3, §4, §5
# [3] = 400 mg/L + ammoniacal iron citrate 100 mg/l, 18 h
# [4] = 400 mg/L + ammoniacal iron citrate 100 mg/l, 24 h
# [5] = 400 mg/L + ammoniacal iron citrate 100 mg/l, 48 h
molecule,measurement,setting,value
Dihydroxyflavone-beta-D-riboside [DHF-β-riboside],% of strains producing colored or fluorescent colonies,S. aureus (MRSA); [3],100%
same,% of strains producing colored or fluorescent colonies,S. aureus (MRSA); [4],100%
same,% of strains producing colored or fluorescent colonies,S. aureus (MRSA); [5],100%
same,% of strains producing colored or fluorescent colonies,S. aureus (MSSA); [3],100%
same,% of strains producing colored or fluorescent colonies,S. aureus (MSSA); [4],100%
same,% of strains producing colored or fluorescent colonies,S. aureus (MSSA); [5],100%
same,% of strains producing colored or fluorescent colonies,[1]; [3],68%
same,% of strains producing colored or fluorescent colonies,[1]; [4],68%
same,% of strains producing colored or fluorescent colonies,[1]; [5],91%
same,% of strains producing colored or fluorescent colonies,Micrococcus luteus; [3],0%
same,% of strains producing colored or fluorescent colonies,Micrococcus luteus; [4],0%
same,% of strains producing colored or fluorescent colonies,Micrococcus luteus; [5],0%
same,% of strains producing colored or fluorescent colonies,Enterococci; [3],30%
same,% of strains producing colored or fluorescent colonies,Enterococci; [4],30%
same,% of strains producing colored or fluorescent colonies,Enterococci; [5],48%
same,% of strains producing colored or fluorescent colonies,[2]; [3],0%
same,% of strains producing colored or fluorescent colonies,[2]; [4],0%
same,% of strains producing colored or fluorescent colonies,[2]; [5],0%
5-Bromo-6-chloro-3-indoxyl-beta-D-riboside [Magenta-β-riboside],% of strains producing colored or fluorescent colonies,"S. aureus (MRSA); 100 mg/L, 18 h",71%
same,% of strains producing colored or fluorescent colonies,"S. aureus (MRSA); 100 mg/L, 24 h",85%
same,% of strains producing colored or fluorescent colonies,"S. aureus (MRSA); 100 mg/L, 48 h",95%
same,% of strains producing colored or fluorescent colonies,"S. aureus (MSSA); 100 mg/L, 18 h",64%
same,% of strains producing colored or fluorescent colonies,"S. aureus (MSSA); 100 mg/L, 24 h",64%
same,% of strains producing colored or fluorescent colonies,"S. aureus (MSSA); 100 mg/L, 48 h",100%
same,% of strains producing colored or fluorescent colonies,"[1]; 100 mg/L, 18 h",0%
same,% of strains producing colored or fluorescent colonies,"[1]; 100 mg/L, 24 h",3%
same,% of strains producing colored or fluorescent colonies,"[1]; 100 mg/L, 48 h",6%
same,% of strains producing colored or fluorescent colonies,"Micrococcus luteus; 100 mg/L, 18 h",0%
same,% of strains producing colored or fluorescent colonies,"Micrococcus luteus; 100 mg/L, 24 h",0%
same,% of strains producing colored or fluorescent colonies,"Micrococcus luteus; 100 mg/L, 48 h",0%
same,% of strains producing colored or fluorescent colonies,"Enterococci; 100 mg/L, 18 h",0%
same,% of strains producing colored or fluorescent colonies,"Enterococci; 100 mg/L, 24 h",2%
same,% of strains producing colored or fluorescent colonies,"Enterococci; 100 mg/L, 48 h",2%
same,% of strains producing colored or fluorescent colonies,"[2]; 100 mg/L, 18 h",0%
same,% of strains producing colored or fluorescent colonies,"[2]; 100 mg/L, 24 h",0%
same,% of strains producing colored or fluorescent colonies,"[2]; 100 mg/L, 48 h",0%
"Cc1cc(=O)oc2cc(O[C@@H]3O[C@H](CO)[C@@H](O)[C@H]3O)ccc12 [4-MU-β-riboside, 4-Methylumbelliferyl-beta-D-riboside]",% of strains producing colored or fluorescent colonies,"S. aureus (MRSA); 50 mg/L, 18 h",97%
same,% of strains producing colored or fluorescent colonies,"S. aureus (MRSA); 50 mg/L, 24 h",97%
same,% of strains producing colored or fluorescent colonies,"S. aureus (MRSA); 50 mg/L, 48 h",97%
same,% of strains producing colored or fluorescent colonies,"S. aureus (MSSA); 50 mg/L, 18 h",100%
same,% of strains producing colored or fluorescent colonies,"S. aureus (MSSA); 50 mg/L, 24 h",100%
same,% of strains producing colored or fluorescent colonies,"S. aureus (MSSA); 50 mg/L, 48 h",100%
same,% of strains producing colored or fluorescent colonies,"[1]; 50 mg/L, 18 h",82%
same,% of strains producing colored or fluorescent colonies,"[1]; 50 mg/L, 24 h",82%
same,% of strains producing colored or fluorescent colonies,"[1]; 50 mg/L, 48 h",82%
same,% of strains producing colored or fluorescent colonies,"Micrococcus luteus; 50 mg/L, 18 h",0%
same,% of strains producing colored or fluorescent colonies,"Micrococcus luteus; 50 mg/L, 24 h",0%
same,% of strains producing colored or fluorescent colonies,"Micrococcus luteus; 50 mg/L, 48 h",0%
same,% of strains producing colored or fluorescent colonies,"Enterococci; 50 mg/L, 18 h",57%
same,% of strains producing colored or fluorescent colonies,"Enterococci; 50 mg/L, 24 h",57%
same,% of strains producing colored or fluorescent colonies,"Enterococci; 50 mg/L, 48 h",49%
same,% of strains producing colored or fluorescent colonies,"[2]; 50 mg/L, 18 h",0%
same,% of strains producing colored or fluorescent colonies,"[2]; 50 mg/L, 24 h",0%
same,% of strains producing colored or fluorescent colonies,"[2]; 50 mg/L, 48 h",0%
"OC[C@H]1O[C@@H](Oc2c[nH]c3cc(Cl)ccc23)[C@H](O)[C@@H]1O [Pink-β-riboside, 6-Chloro-3-indoxyl-beta-D-riboside]",% of strains producing colored or fluorescent colonies,"S. aureus (MRSA); 100 mg/L, 18 h",91%
same,% of strains producing colored or fluorescent colonies,"S. aureus (MRSA); 100 mg/L, 24 h",96%
same,% of strains producing colored or fluorescent colonies,"S. aureus (MRSA); 100 mg/L, 48 h",100%
same,% of strains producing colored or fluorescent colonies,"S. aureus (MRSA); 200 mg/L, 18 h",84%
same,% of strains producing colored or fluorescent colonies,"S. aureus (MRSA); 200 mg/L, 24 h",94%
same,% of strains producing colored or fluorescent colonies,"S. aureus (MRSA); 200 mg/L, 48 h",100%
same,% of strains producing colored or fluorescent colonies,"S. aureus (MSSA); 100 mg/L, 18 h",64%
same,% of strains producing colored or fluorescent colonies,"S. aureus (MSSA); 100 mg/L, 24 h",64%
same,% of strains producing colored or fluorescent colonies,"S. aureus (MSSA); 100 mg/L, 48 h",100%
same,% of strains producing colored or fluorescent colonies,"S. aureus (MSSA); 200 mg/L, 18 h",57%
same,% of strains producing colored or fluorescent colonies,"S. aureus (MSSA); 200 mg/L, 24 h",64%
same,% of strains producing colored or fluorescent colonies,"S. aureus (MSSA); 200 mg/L, 48 h",100%
same,% of strains producing colored or fluorescent colonies,"[1]; 100 mg/L, 18 h",3%
same,% of strains producing colored or fluorescent colonies,"[1]; 100 mg/L, 24 h",3%
same,% of strains producing colored or fluorescent colonies,"[1]; 100 mg/L, 48 h",3%
same,% of strains producing colored or fluorescent colonies,"[1]; 200 mg/L, 18 h",3%
same,% of strains producing colored or fluorescent colonies,"[1]; 200 mg/L, 24 h",3%
same,% of strains producing colored or fluorescent colonies,"[1]; 200 mg/L, 48 h",6%
same,% of strains producing colored or fluorescent colonies,"Micrococcus luteus; 100 mg/L, 18 h",0%
same,% of strains producing colored or fluorescent colonies,"Micrococcus luteus; 100 mg/L, 24 h",0%
same,% of strains producing colored or fluorescent colonies,"Micrococcus luteus; 100 mg/L, 48 h",0%
same,% of strains producing colored or fluorescent colonies,"Micrococcus luteus; 200 mg/L, 18 h",0%
same,% of strains producing colored or fluorescent colonies,"Micrococcus luteus; 200 mg/L, 24 h",0%
same,% of strains producing colored or fluorescent colonies,"Micrococcus luteus; 200 mg/L, 48 h",0%
same,% of strains producing colored or fluorescent colonies,"Enterococci; 100 mg/L, 18 h",0%
same,% of strains producing colored or fluorescent colonies,"Enterococci; 100 mg/L, 24 h",0%
same,% of strains producing colored or fluorescent colonies,"Enterococci; 100 mg/L, 48 h",2%
same,% of strains producing colored or fluorescent colonies,"Enterococci; 200 mg/L, 18 h",0%
same,% of strains producing colored or fluorescent colonies,"Enterococci; 200 mg/L, 24 h",0%
same,% of strains producing colored or fluorescent colonies,"Enterococci; 200 mg/L, 48 h",0%
same,% of strains producing colored or fluorescent colonies,"[2]; 100 mg/L, 18 h",0%
same,% of strains producing colored or fluorescent colonies,"[2]; 100 mg/L, 24 h",0%
same,% of strains producing colored or fluorescent colonies,"[2]; 100 mg/L, 48 h",0%
same,% of strains producing colored or fluorescent colonies,"[2]; 200 mg/L, 18 h",0%
same,% of strains producing colored or fluorescent colonies,"[2]; 200 mg/L, 24 h",0%
same,% of strains producing colored or fluorescent colonies,"[2]; 200 mg/L, 48 h",0%
